Literature values as cited in patent publication US7989007B2, “Weight loss composition” (Vincent James Enterprises, LLC, priority 2007, dated 2011).

Conditions: subjects treated for hypertension; similar degree of hypertension control

weight gain compared to patients treated with captopril: twice the weight gain
SMILES: CC(C)NCC(O)COc1ccc(CC(N)=O)cc1 (stereo not shown) [atenolol]
